Assay results published in ChEMBL document CHEMBL3046564, “Antifungal activity of beta-asarone from rhizomes of Acorus gramineus” (2004).
Values after ≈ are worked out from the molar mass of the structure shown. Active and inactive are the calls of the source. No cut-off for these calls is given here.

Columns and labels:
[1] = tested on: Colletotrichum orbiculare; test: Antifungal activity against Colletotrichum orbiculare infested cucumber plant grown under greenhouse condition assessed as reduction in lesion formation on second leaves at 10 to 500 ug/ml sprayed at two-leaf stage 1 day prior inoculation measured after 6 days post inoculation; format: functional, organism-based
[2] = tested on: Colletotrichum orbiculare; test: Antifungal activity against Colletotrichum orbiculare infested cucumber plant grown under greenhouse condition assessed as reduction in lesion formation on second leaves at 500 ug/ml sprayed at two-leaf stage 1 day prior inoculation measured after 6 days post inoculation; format: functional, organism-based
[3] = tested on: Pectobacterium carotovorum subsp. carotovorum; test: Antimicrobial activity against Pectobacterium carotovorum subsp. carotovorum assessed as mycelial growth inhibition after 3 to 5 days; format: functional
[4] = tested on: Pyricularia grisea; test: Antimicrobial activity against Magnaporthe grisea assessed as mycelial growth inhibition after 3 to 5 days; format: functional
[5] = tested on: Ilyonectria destructans; test: Antimicrobial activity against Ilyonectria radicicola assessed as mycelial growth inhibition after 3 to 5 days; format: functional
[6] = tested on: Candida albicans; test: Antimicrobial activity against Candida albicans assessed as mycelial growth inhibition after 3 to 5 days; format: functional
[7] = tested on: Fusarium oxysporum f. sp. lycopersici; test: Antimicrobial activity against Fusarium oxysporum f. sp. lycopersici assessed as mycelial growth inhibition after 3 to 5 days; format: functional
[8] = tested on: Phytophthora capsici; test: Antimicrobial activity against Phytophthora capsici assessed as mycelial growth inhibition after 3 to 5 days; format: functional
[9] = tested on: Bacillus subtilis; test: Antimicrobial activity against Bacillus subtilis assessed as mycelial growth inhibition after 3 to 5 days; format: functional
[10] = tested on: Botrytis cinerea; test: Antimicrobial activity against Botryotinia fuckeliana assessed as mycelial growth inhibition after 3 to 5 days; format: functional
[11] = tested on: Colletotrichum orbiculare; test: Antimicrobial activity against Colletotrichum orbiculare assessed as mycelial growth inhibition after 3 to 5 days; format: functional
[12] = tested on: Colletotrichum orbiculare; test: Antifungal activity against Colletotrichum orbiculare infested cucumber plant grown under greenhouse condition assessed as supression of anthracnose development at 500 ug/ml sprayed at two-leaf stage 1 day prior inoculation measured after 6 days post inoculation; format: functional, organism-based
[13] = tested on: Saccharomyces cerevisiae; test: Antimicrobial activity against Saccharomyces cerevisiae assessed as mycelial growth inhibition after 3 to 5 days; format: functional
[14] = tested on: Globisporangium ultimum; test: Antimicrobial activity against Pythium ultimum assessed as mycelial growth inhibition after 3 to 5 days; format: functional
[15] = tested on: Rhizoctonia solani; test: Antimicrobial activity against Rhizoctonia solani assessed as mycelial growth inhibition after 3 to 5 days; format: functional
[16] = tested on: Alternaria mali; test: Antimicrobial activity against Alternaria mali assessed as mycelial growth inhibition at 100 ug/ml after 3 to 5 days; format: functional, organism-based
[17] = tested on: Sclerotinia sclerotiorum; test: Antimicrobial activity against Sclerotinia sclerotiorum assessed as mycelial growth inhibition after 3 to 5 days; format: functional
[18] = tested on: Cladosporium cucumerinum; test: Antimicrobial activity against Cladosporium cucumerinum assessed as mycelial growth inhibition after 3 to 5 days; format: functional
[19] = tested on: Xanthomonas campestris; test: Antimicrobial activity against Xanthomonas euvesicatoria assessed as mycelial growth inhibition after 3 to 5 days; format: functional
[20] = tested on: Ralstonia solanacearum; test: Antimicrobial activity against Ralstonia solanacearum assessed as mycelial growth inhibition after 3 to 5 days; format: functional

SMILES	Activity [1]	Activity [2]	MIC [3] [µg/mL]	MIC [4] [µg/mL]	MIC [5] [µg/mL]	MIC [6] [µg/mL]	MIC [7] [µg/mL]	MIC [8] [µg/mL]	MIC [9] [µg/mL]	MIC [10] [µg/mL]	MIC [11] [µg/mL]	Activity [12]	MIC [13] [µg/mL]	MIC [14] [µg/mL]	MIC [15] [µg/mL]	growth inhibition (GI) [16]	MIC [17] [µg/mL]	MIC [18] [µg/mL]	MIC [19] [µg/mL]	MIC [20] [µg/mL]
N#Cc1c(Cl)c(Cl)c(Cl)c(C#N)c1Cl	Active	–	–	–	–	–	–	–	–	–	–	–	–	–	–	–	–	–	–	–
C/C=C\c1cc(OC)c(OC)cc1OC [CIS-ASARONE]	–	Active	50 (≈ 240 µM)	30 (≈ 144 µM)	> 100	> 100	> 100	> 100	50 (≈ 240 µM)	> 100	30 (≈ 144 µM)	Active	> 100	0.5 (≈ 2.4 µM)	> 100	inactive	> 100	30 (≈ 144 µM)	50 (≈ 240 µM)	50 (≈ 240 µM)
